# Reference: the supplement of paper PMC10307832
# Assays:
# Experiment in all cases: relative viability (nuclei count vs DMSO), 5 days (fraction); higher = more cells survive
# 201T = test system: 201T
# Outline: (§1)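 Lung cancer cell lines, seeded in 1536-well plates, were treated the following day by pin tool with a single drug or with five library-drug doses (not always all listed) in √10 steps on top of a fixed anchor-drug dose. Cells were fixed and nuclei stained in one step after 5 days, and nuclei were counted. Relative viability is the nuclei count for treated wells divided by that for vehicle wells, reported as medians of duplicate plates.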
# NCI-H1666 = test system: NCI-H1666
# Outline: as §1
# NCI-H441 = test system: NCI-H441
# Outline: as §1
# SK-MES-1 = test system: SK-MES-1
# Outline: as §1
# A-427 = test system: A-427
# Outline: as §1
# COR-L23 = test system: COR-L23
# Outline: as §1
# NCI-H596 = test system: NCI-H596
# Outline: as §1
# LK-2 = test system: LK-2
# Outline: as §1
# EKVX = test system: EKVX
# Outline: as §1
# NCI-H650 = test system: NCI-H650
# Outline: as §1
# HCC-44 = test system: HCC-44
# Outline: as §1
# NCI-H838 = test system: NCI-H838
# Outline: as §1
# NCI-H522 = test system: NCI-H522
# Outline: as §1
# HARA = test system: HARA
# Outline: as §1
# HCC-15 = test system: HCC-15
# Outline: as §1
# NCI-H23 = test system: NCI-H23
# Outline: as §1
# HCC-827 = test system: HCC-827
# Outline: as §1
# LCLC-103H = test system: LCLC-103H
# Outline: as §1
# NCI-H1437 = test system: NCI-H1437
# Outline: as §1
# COR-L 105 = test system: COR-L 105
# Outline: as §1
# NCI-H1975 = test system: NCI-H1975
# Outline: as §1
# SW 900 = test system: SW 900
# Outline: as §1
# NCI-H520 = test system: NCI-H520
# Outline: as §1
smiles,measurement,setting,value
Clc1ccc(Nc2nnc(Cc3ccncc3)c3ccccc23)cc1 [Vatalanib] + Cc1cc(Nc2cc(N3CCN(C)CC3)nc(Sc3ccc(NC(=O)C4CC4)cc3)n2)n[nH]1 [Tozasertib] (partner 0.1 µM),relative viability,201T; first compound 0.04 µM,0.932
same,relative viability,201T; first compound 0.1265 µM,0.943
same,relative viability,201T; first compound 0.4 µM,0.985
same,relative viability,201T; first compound 1.265 µM,0.896
same,relative viability,201T; first compound 4 µM,0.916
same,relative viability,NCI-H1666; first compound 0.04 µM,0.617
same,relative viability,NCI-H1666; first compound 0.1265 µM,0.569
same,relative viability,NCI-H1666; first compound 0.4 µM,0.615
same,relative viability,NCI-H1666; first compound 1.265 µM,0.568
same,relative viability,NCI-H1666; first compound 4 µM,0.55
same,relative viability,NCI-H441; first compound 0.04 µM,0.847
same,relative viability,NCI-H441; first compound 0.1265 µM,0.746
same,relative viability,NCI-H441; first compound 0.4 µM,0.643
same,relative viability,NCI-H441; first compound 1.265 µM,0.659
same,relative viability,NCI-H441; first compound 4 µM,0.598
same,relative viability,SK-MES-1; first compound 0.04 µM,0.951
same,relative viability,SK-MES-1; first compound 0.1265 µM,0.897
same,relative viability,SK-MES-1; first compound 0.4 µM,1.01
same,relative viability,SK-MES-1; first compound 1.265 µM,0.813
same,relative viability,SK-MES-1; first compound 4 µM,0.803
same,relative viability,A-427; first compound 0.04 µM,0.224
same,relative viability,A-427; first compound 0.1265 µM,0.21
same,relative viability,A-427; first compound 0.4 µM,0.232
same,relative viability,A-427; first compound 1.265 µM,0.206
same,relative viability,A-427; first compound 4 µM,0.2
same,relative viability,COR-L23; first compound 0.04 µM,0.232
same,relative viability,COR-L23; first compound 0.1265 µM,0.194
same,relative viability,COR-L23; first compound 0.4 µM,0.206
same,relative viability,COR-L23; first compound 1.265 µM,0.168
same,relative viability,COR-L23; first compound 4 µM,0.173
same,relative viability,NCI-H596; first compound 0.04 µM,0.783
same,relative viability,NCI-H596; first compound 0.1265 µM,0.821
same,relative viability,NCI-H596; first compound 0.4 µM,0.831
same,relative viability,NCI-H596; first compound 1.265 µM,0.747
same,relative viability,NCI-H596; first compound 4 µM,0.952
same,relative viability,LK-2; first compound 0.04 µM,0.164
same,relative viability,LK-2; first compound 0.1265 µM,0.161
same,relative viability,LK-2; first compound 0.4 µM,0.173
same,relative viability,LK-2; first compound 1.265 µM,0.182
same,relative viability,LK-2; first compound 4 µM,0.203
same,relative viability,EKVX; first compound 0.04 µM,0.392
same,relative viability,EKVX; first compound 0.1265 µM,0.363
same,relative viability,EKVX; first compound 0.4 µM,0.427
same,relative viability,EKVX; first compound 4 µM,0.343
same,relative viability,NCI-H650; first compound 0.04 µM,0.81
same,relative viability,NCI-H650; first compound 0.1265 µM,0.655
same,relative viability,NCI-H650; first compound 1.265 µM,0.718
same,relative viability,NCI-H650; first compound 4 µM,0.631
same,relative viability,HCC-44; first compound 0.04 µM,1.1
same,relative viability,HCC-44; first compound 0.1265 µM,0.887
same,relative viability,HCC-44; first compound 0.4 µM,0.91
same,relative viability,HCC-44; first compound 1.265 µM,0.907
same,relative viability,HCC-44; first compound 4 µM,0.815
same,relative viability,NCI-H838; first compound 0.04 µM,0.249
same,relative viability,NCI-H838; first compound 0.1265 µM,0.28
same,relative viability,NCI-H838; first compound 0.4 µM,0.302
same,relative viability,NCI-H838; first compound 1.265 µM,0.228
same,relative viability,NCI-H838; first compound 4 µM,0.295
same,relative viability,NCI-H522; first compound 0.04 µM,0.565
same,relative viability,NCI-H522; first compound 0.1265 µM,0.508
same,relative viability,NCI-H522; first compound 0.4 µM,0.636
same,relative viability,NCI-H522; first compound 1.265 µM,0.57
same,relative viability,NCI-H522; first compound 4 µM,0.477
same,relative viability,HARA; first compound 0.04 µM,0.0991
same,relative viability,HARA; first compound 0.1265 µM,0.11
same,relative viability,HARA; first compound 0.4 µM,0.108
same,relative viability,HARA; first compound 1.265 µM,0.0945
same,relative viability,HARA; first compound 4 µM,0.112
same,relative viability,HCC-15; first compound 0.04 µM,0.419
same,relative viability,HCC-15; first compound 0.1265 µM,0.465
same,relative viability,HCC-15; first compound 0.4 µM,0.478
same,relative viability,HCC-15; first compound 1.265 µM,0.446
same,relative viability,HCC-15; first compound 4 µM,0.426
same,relative viability,NCI-H23; first compound 0.04 µM,0.435
same,relative viability,NCI-H23; first compound 0.1265 µM,0.373
same,relative viability,NCI-H23; first compound 0.4 µM,0.364
same,relative viability,NCI-H23; first compound 1.265 µM,0.314
same,relative viability,NCI-H23; first compound 4 µM,0.578
same,relative viability,HCC-827; first compound 0.04 µM,0.378
same,relative viability,HCC-827; first compound 0.1265 µM,0.423
same,relative viability,HCC-827; first compound 0.4 µM,0.463
same,relative viability,HCC-827; first compound 1.265 µM,0.429
same,relative viability,HCC-827; first compound 4 µM,0.367
same,relative viability,LCLC-103H; first compound 0.04 µM,0.482
same,relative viability,LCLC-103H; first compound 0.1265 µM,0.518
same,relative viability,LCLC-103H; first compound 0.4 µM,0.532
same,relative viability,LCLC-103H; first compound 1.265 µM,0.503
same,relative viability,LCLC-103H; first compound 4 µM,0.502
same,relative viability,NCI-H1437; first compound 0.04 µM,0.409
same,relative viability,NCI-H1437; first compound 0.1265 µM,0.353
same,relative viability,NCI-H1437; first compound 0.4 µM,0.41
same,relative viability,NCI-H1437; first compound 1.265 µM,0.437
same,relative viability,NCI-H1437; first compound 4 µM,0.392
same,relative viability,COR-L 105; first compound 0.04 µM,0.339
same,relative viability,COR-L 105; first compound 0.1265 µM,0.344
same,relative viability,COR-L 105; first compound 0.4 µM,0.451
same,relative viability,COR-L 105; first compound 1.265 µM,0.35
same,relative viability,COR-L 105; first compound 4 µM,0.362
same,relative viability,NCI-H1975; first compound 0.04 µM,0.835
same,relative viability,NCI-H1975; first compound 0.1265 µM,0.687
same,relative viability,NCI-H1975; first compound 0.4 µM,0.726
same,relative viability,NCI-H1975; first compound 1.265 µM,0.535
same,relative viability,NCI-H1975; first compound 4 µM,0.424
same,relative viability,SW 900; first compound 0.1265 µM,0.563
same,relative viability,SW 900; first compound 0.4 µM,0.68
same,relative viability,SW 900; first compound 1.265 µM,0.482
same,relative viability,SW 900; first compound 4 µM,0.572
same,relative viability,NCI-H520; first compound 0.04 µM,0.443
same,relative viability,NCI-H520; first compound 0.1265 µM,0.385
same,relative viability,NCI-H520; first compound 0.4 µM,0.467
same,relative viability,NCI-H520; first compound 1.265 µM,0.443
same,relative viability,NCI-H520; first compound 4 µM,0.422
CC(C)Oc1cc(Nc2nc(N[C@@H](C)c3ccc(F)cn3)ncc2Cl)n[nH]1 [AZ23] + COc1cc2c(Oc3ccc(NC(=O)C4(C(=O)Nc5ccc(F)cc5)CC4)cc3F)ccnc2cc1OCCCN1CCOCC1 [Foretinib] (partner 0.25 µM),relative viability,201T; first compound 0.03162 µM,1.28
same,relative viability,201T; first compound 0.3162 µM,1.13
same,relative viability,NCI-H1666; first compound 0.01 µM,0.992
same,relative viability,NCI-H1666; first compound 0.03162 µM,1.05
same,relative viability,NCI-H1666; first compound 0.3162 µM,0.918
same,relative viability,NCI-H441; first compound 0.01 µM,1.52
same,relative viability,NCI-H441; first compound 0.03162 µM,0.854
same,relative viability,NCI-H441; first compound 0.3162 µM,0.967
same,relative viability,SK-MES-1; first compound 0.01 µM,0.761
same,relative viability,SK-MES-1; first compound 0.03162 µM,1.05
same,relative viability,SK-MES-1; first compound 0.3162 µM,0.977
same,relative viability,A-427; first compound 0.01 µM,1
same,relative viability,A-427; first compound 0.03162 µM,1.05
same,relative viability,A-427; first compound 0.3162 µM,1.07
same,relative viability,COR-L23; first compound 0.01 µM,1.09
same,relative viability,COR-L23; first compound 0.03162 µM,1.02
same,relative viability,COR-L23; first compound 0.3162 µM,1.11
same,relative viability,NCI-H596; first compound 0.01 µM,0.89
same,relative viability,NCI-H596; first compound 0.03162 µM,0.877
same,relative viability,NCI-H596; first compound 0.3162 µM,0.737
same,relative viability,LK-2; first compound 0.01 µM,1.15
same,relative viability,LK-2; first compound 0.03162 µM,1.38
same,relative viability,LK-2; first compound 0.3162 µM,0.706
same,relative viability,EKVX; first compound 0.01 µM,0.782
same,relative viability,EKVX; first compound 0.03162 µM,0.988
same,relative viability,EKVX; first compound 0.3162 µM,0.565
same,relative viability,NCI-H650; first compound 0.01 µM,0.988
same,relative viability,NCI-H650; first compound 0.03162 µM,1.01
same,relative viability,NCI-H650; first compound 0.3162 µM,1
same,relative viability,NCI-H838; first compound 0.01 µM,1.24
same,relative viability,NCI-H838; first compound 0.03162 µM,1.14
same,relative viability,NCI-H838; first compound 0.3162 µM,0.994
same,relative viability,HARA; first compound 0.03162 µM,1.04
same,relative viability,HARA; first compound 0.3162 µM,0.783
same,relative viability,HCC-15; first compound 0.01 µM,1.16
same,relative viability,HCC-15; first compound 0.03162 µM,1.09
same,relative viability,HCC-15; first compound 0.3162 µM,1.05
same,relative viability,NCI-H23; first compound 0.03162 µM,1.07
same,relative viability,NCI-H23; first compound 0.3162 µM,0.596
same,relative viability,HCC-827; first compound 0.01 µM,1.05
same,relative viability,HCC-827; first compound 0.03162 µM,1.09
same,relative viability,HCC-827; first compound 0.3162 µM,1.11
same,relative viability,LCLC-103H; first compound 0.01 µM,0.729
same,relative viability,LCLC-103H; first compound 0.03162 µM,0.817
same,relative viability,LCLC-103H; first compound 0.3162 µM,0.78
same,relative viability,NCI-H1437; first compound 0.01 µM,1.37
same,relative viability,NCI-H1437; first compound 0.03162 µM,1.35
same,relative viability,NCI-H1437; first compound 0.3162 µM,1.4
same,relative viability,COR-L 105; first compound 0.01 µM,1.07
same,relative viability,COR-L 105; first compound 0.03162 µM,1.26
same,relative viability,COR-L 105; first compound 0.3162 µM,0.842
same,relative viability,NCI-H1975; first compound 0.01 µM,1.05
same,relative viability,NCI-H1975; first compound 0.03162 µM,1.14
same,relative viability,NCI-H1975; first compound 0.3162 µM,0.99
same,relative viability,SW 900; first compound 0.01 µM,1.04
same,relative viability,SW 900; first compound 0.03162 µM,0.844
same,relative viability,SW 900; first compound 0.3162 µM,0.775
same,relative viability,NCI-H520; first compound 0.01 µM,0.813
same,relative viability,NCI-H520; first compound 0.03162 µM,0.966
same,relative viability,NCI-H520; first compound 0.3162 µM,0.677
